Data from PubChem BioAssay (NCI).
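Results reflect a 48-hour exposure of cells in 96-well plates to compound at five concentrations. GI50 = concentration required for 50% inhibition of growth. TGI is the concentration that stops growth completely.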

Assays:
Experiment in all cases: NCI anticancer screen, dose series, 48 h
[1] = test system: 786-0 renal
[2] = test system: A498 renal
[3] = test system: A549 NSCLC
[4] = test system: ACHN renal
[5] = test system: BT-549 breast
[6] = test system: CAKI-1 renal
[7] = test system: CCRF-CEM leukemia
[8] = test system: COLO 205 colon
[9] = test system: DU-145 prostate
[10] = test system: EKVX NSCLC
[11] = test system: HCC-2998 colon
[12] = test system: HCT-116 colon
[13] = test system: HCT-15 colon
[14] = test system: HL-60(TB) leukemia
[15] = test system: HOP-62 NSCLC
[16] = test system: HOP-92 NSCLC
[17] = test system: HS 578T breast
[18] = test system: HT29 colon
[19] = test system: IGROV1 ovarian
[20] = test system: K-562 leukemia
[21] = test system: KM12 colon
[22] = test system: LOX IMVI melanoma
[23] = test system: M14 melanoma
[24] = test system: MALME-3M melanoma
[25] = test system: MCF7 breast
[26] = test system: MDA-MB-231 breast
[27] = test system: MDA-MB-435
[28] = test system: MOLT-4 leukemia
[29] = test system: NCI-H226 lung
[30] = test system: NCI-H23 lung
[31] = test system: NCI-H460 lung
[32] = test system: NCI-H522 lung
[33] = test system: NCI/ADR-RES ovarian
[34] = test system: OVCAR-4 ovarian
[35] = test system: OVCAR-5 ovarian
[36] = test system: OVCAR-8 ovarian
[37] = test system: PC-3 prostate
[38] = test system: RPMI-8226 leukemia
[39] = test system: RXF 393 renal
[40] = test system: SF-268 CNS
[41] = test system: SF-295 CNS
[42] = test system: SF-539 CNS
[43] = test system: SK-MEL-2 melanoma
[44] = test system: SK-MEL-28 melanoma
[45] = test system: SK-MEL-5 melanoma
[46] = test system: SK-OV-3 ovarian
[47] = test system: SN12C renal
[48] = test system: SNB-19 CNS
[49] = test system: SNB-75 CNS
[50] = test system: SR leukemia
[51] = test system: SW-620 colon
[52] = test system: T-47D breast
[53] = test system: TK-10 renal
[54] = test system: U251 CNS
[55] = test system: UACC-257 melanoma
[56] = test system: UACC-62 melanoma
[57] = test system: UO-31 renal

For `CCCCCCNC(=O)Oc1ccc(/C(=C(\C)c2ccc(Cl)cc2)c2ccc(OCCN(C)C)cc2)cc1`, the GI50 [1] was 1.74 µM, the TGI [1] was 3.27 µM and the GI50 [2] was 2.69 µM. It also gave a TGI [2] of 12.1 µM, a GI50 [3] of 1.63 µM and a TGI [3] of 3.13 µM. The GI50 [4] was 1.88 µM, the TGI [4] was 3.77 µM and the GI50 [5] was 2.88 µM. For the same molecule, the TGI [5] was 9.2 µM, the GI50 [6] was 1.33 µM and the TGI [6] was 2.65 µM. For the same molecule, the GI50 [7] was 1.89 µM, the TGI [7] was 5.64 µM and the GI50 [8] was 1.68 µM. It also gave a TGI [8] of 3.1 µM, a GI50 [9] of 2.02 µM and a TGI [9] of 3.92 µM. It also gave a GI50 [10] of 3.83 µM, a TGI [10] of 16.5 µM and a GI50 [11] of 2.06 µM. The TGI [11] was 4.29 µM, the GI50 [12] was 1.53 µM and the TGI [12] was 3 µM. For the same molecule, the GI50 [13] was 1.72 µM, the TGI [13] was 3.3 µM and the GI50 [14] was 1.62 µM. It also gave a TGI [14] of 4.3 µM, a GI50 [15] of 1.63 µM and a TGI [15] of 3.18 µM. It also gave a GI50 [16] of 1.02 µM, a TGI [16] of 2.22 µM and a GI50 [17] of 1.55 µM. It also gave a TGI [17] of 3.53 µM, a GI50 [18] of 1.71 µM and a TGI [18] of 3.37 µM. The GI50 [19] was 1.81 µM, the TGI [19] was 3.57 µM and the GI50 [20] was 1.66 µM. For the same molecule, the TGI [20] was 7.21 µM, the GI50 [21] was 1.87 µM and the TGI [21] was 3.61 µM. The GI50 [22] was 1.63 µM, the TGI [22] was 2.99 µM and the GI50 [23] was 1.69 µM. For the same molecule, the TGI [23] was 3.19 µM, the GI50 [24] was 1.72 µM and the TGI [24] was 3.26 µM. It also gave a GI50 [25] of 0.216 µM, a TGI [25] of 2.19 µM and a GI50 [26] of 1.77 µM. It also gave a TGI [26] of 3.38 µM, a GI50 [27] of 1.72 µM and a TGI [27] of 3.24 µM. For the same molecule, the GI50 [28] was 1.93 µM, the TGI [28] was 5.27 µM and the GI50 [29] was 4.26 µM. For the same molecule, the TGI [29] was 18.1 µM, the GI50 [30] was 2.24 µM and the TGI [30] was 5.71 µM. The GI50 [31] was 1.7 µM, the TGI [31] was 3.12 µM and the GI50 [32] was 1.78 µM. It also gave a TGI [32] of 3.42 µM, a GI50 [33] of 3.12 µM and a TGI [33] of 11.8 µM. For the same molecule, the GI50 [34] was 1.94 µM, the TGI [34] was 4.65 µM and the GI50 [35] was 4.26 µM. The TGI [35] was 17.1 µM, the GI50 [36] was 1.6 µM and the TGI [36] was 3.1 µM. The GI50 [37] was 1.44 µM, the TGI [37] was 2.84 µM and the GI50 [38] was 1.9 µM. For the same molecule, the TGI [38] was 4.3 µM, the GI50 [39] was 1.33 µM and the TGI [39] was 2.72 µM. The GI50 [40] was 2.39 µM, the TGI [40] was 7.63 µM and the GI50 [41] was 1.75 µM. It also gave a TGI [41] of 3.2 µM, a GI50 [42] of 1.74 µM and a TGI [42] of 3.12 µM. The GI50 [43] was 1.87 µM, the TGI [43] was 3.8 µM and the GI50 [44] was 1.78 µM. It also gave a TGI [44] of 3.26 µM, a GI50 [45] of 1.77 µM and a TGI [45] of 3.25 µM. For the same molecule, the GI50 [46] was 2.22 µM, the TGI [46] was 6.92 µM and the GI50 [47] was 1.68 µM. It also gave a TGI [47] of 3.22 µM, a GI50 [48] of 3.31 µM and a TGI [48] of 12.4 µM. The GI50 [49] was 1.69 µM, the TGI [49] was 7.12 µM and the GI50 [50] was 1.68 µM. The TGI [50] was 4.1 µM, the GI50 [51] was 1.6 µM and the TGI [51] was 3.03 µM. The GI50 [52] was 1.45 µM, the TGI [52] was 4.12 µM and the GI50 [53] was 1.84 µM. For the same molecule, the TGI [53] was 4.08 µM, the GI50 [54] was 1.59 µM and the TGI [54] was 3.04 µM. For the same molecule, the GI50 [55] was 1.76 µM, the TGI [55] was 3.28 µM and the GI50 [56] was 1.72 µM. The TGI [56] was 3.32 µM, the GI50 [57] was 1.31 µM and the TGI [57] was 2.77 µM.
